Reference: the Kinase Knowledgebase extract (Sharma et al. 2016)

target: EGFR (human) (UniProt P00533); details: a431
Sequence (P00533 whole entry, looked up): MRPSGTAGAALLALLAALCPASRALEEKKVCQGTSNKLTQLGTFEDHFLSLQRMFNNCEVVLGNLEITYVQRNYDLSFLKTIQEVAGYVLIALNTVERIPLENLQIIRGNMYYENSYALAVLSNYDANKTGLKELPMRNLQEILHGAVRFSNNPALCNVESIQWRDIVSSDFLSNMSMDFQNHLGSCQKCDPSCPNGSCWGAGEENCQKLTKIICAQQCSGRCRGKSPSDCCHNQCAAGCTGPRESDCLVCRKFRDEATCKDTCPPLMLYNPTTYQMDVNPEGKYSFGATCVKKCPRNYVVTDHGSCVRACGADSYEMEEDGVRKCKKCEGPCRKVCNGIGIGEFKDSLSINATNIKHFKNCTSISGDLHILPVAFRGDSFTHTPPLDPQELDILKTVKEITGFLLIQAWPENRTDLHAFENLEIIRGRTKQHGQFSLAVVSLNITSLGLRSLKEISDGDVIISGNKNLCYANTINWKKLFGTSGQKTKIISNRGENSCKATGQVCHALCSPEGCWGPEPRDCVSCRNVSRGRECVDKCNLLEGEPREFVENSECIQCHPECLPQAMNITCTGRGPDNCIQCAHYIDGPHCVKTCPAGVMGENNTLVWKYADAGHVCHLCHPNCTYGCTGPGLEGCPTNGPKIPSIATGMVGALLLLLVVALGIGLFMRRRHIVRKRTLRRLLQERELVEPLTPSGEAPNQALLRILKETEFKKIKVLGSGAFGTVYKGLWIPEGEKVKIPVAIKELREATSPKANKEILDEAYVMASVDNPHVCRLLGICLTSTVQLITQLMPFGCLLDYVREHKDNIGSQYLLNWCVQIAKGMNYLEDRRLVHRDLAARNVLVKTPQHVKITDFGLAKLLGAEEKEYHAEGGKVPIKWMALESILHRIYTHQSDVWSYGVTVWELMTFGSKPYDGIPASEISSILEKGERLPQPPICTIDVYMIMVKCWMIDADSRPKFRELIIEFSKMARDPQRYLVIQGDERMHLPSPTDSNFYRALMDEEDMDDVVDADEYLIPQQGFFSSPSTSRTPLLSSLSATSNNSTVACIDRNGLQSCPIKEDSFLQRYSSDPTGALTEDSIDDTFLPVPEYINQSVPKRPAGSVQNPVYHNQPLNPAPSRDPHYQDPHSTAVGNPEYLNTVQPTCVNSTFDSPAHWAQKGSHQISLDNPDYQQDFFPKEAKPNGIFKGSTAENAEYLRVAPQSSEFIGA

Going from `Cc1ccccc1Cn1ccc2c(Nc3cccc(Br)c3)nc(N)nc21` to `Nc1nc(Nc2cccc(Br)c2)c2ccn(Cc3ccccc3Cl)c2n1`, the IC50 rises from 15.7 µM to 88.4 µM (5.6-fold). The first is the more potent here.

Going from `Nc1nc(Nc2cccc(Br)c2)c2ccn(Cc3cccc4ccccc34)c2n1` to `Nc1nc(Nc2cccc(Br)c2)c2ccn(Cc3ccc4ccccc4c3)c2n1`, the IC50 falls from 36.3 µM to 20.4 µM (1.8-fold). The second is the more potent here.

`Nc1nc(Nc2cccc(Br)c2)c2ccn(Cc3ccc(Cl)cc3)c2n1` and `Nc1nc(Nc2cccc(Br)c2)c2ccn(Cc3ccc(Cl)c(Cl)c3)c2n1` are within 1.5-fold of each other in IC50: 16.1 µM for the first, 19.2 µM for the second.

Compared with `Nc1nc(Nc2cccc(Br)c2)c2ccn(Cc3ccc(Cl)cc3Cl)c2n1`, `Nc1nc(Nc2cccc(Br)c2)c2ccn(Cc3ccccc3)c2n1` is 3.3-fold higher in IC50: 15.3 µM for the first, 50.4 µM for the second. The first is the more potent here.

`COc1cc(Cn2ccc3c(Nc4cccc(Br)c4)nc(N)nc32)cc(OC)c1OC` and `COc1ccc(OC)c(Cn2ccc3c(Nc4cccc(Br)c4)nc(N)nc32)c1` are within 1.5-fold of each other in IC50: 39 µM for the first, 40.6 µM for the second.

For `Nc1nc(Nc2cccc(Br)c2)c2ccn(Cc3ccc(-c4ccccc4)cc3)c2n1`, the IC50 was 13.3 µM.
